In patent US9801858B2, “Progress-supressing or improving agent for chronic kidney disease” (NIPPON ZOKI PHARMACEUTICAL CO., LTD., priority 2014, dated 2017):
“Also recorded” adds a separate entry of the source. Like-named read-outs stand apart in the source and are kept apart here.

Tests used:
[1] = test system: patients with diabetic CRF; conditions: cited from earlier work
[2] = test system: patients with CKD (rapidly-progressive and slowly-progressive); experiment: new clinical tests: investigational drug orally once daily for 24 weeks, CKD stage 3 or 4; format: in vivo, human; conditions: for progress of worsening of the renal function (inclination of regression line to 1/sCr, before vs after): 24 weeks
Description: During such a period, a good idea has occurred that the effect of the present compound is investigated after dividing the patients with CKD into groups where worsening of the renal function is rapid and is not. As a result, the patients with CKD were divided into a group where changes in the reciprocal sCr value (1/sCr) per month before administration of the test drug are 0.01 dL/mg or more and worsening of the renal function is rapidly progressing (hereinafter, that will be referred to as “rapidly progressive CKD patients”) and another group where said changes are less than 0.01 dL/mg (hereinafter, that will be referred to as “slowly progressive CKD patients”) and clinical tests comparing the effect of the present compound were carried out. (Hereinafter, that will be referred to as “new clinical tests”.) Such a yardstick where the changes in the reciprocal sCr value are 0.01 dL/mg or more followed the yardstick adopted in the application of “Kremezin (Registered Trade Mark)” which is the above-mentioned spherical adsorptive carbon preparation. Further, in the new clinical tests, dose of the present compound was increased to some extent so as to find the difference from the results in the old clinical tests. Summary and result of the new clinical tests will be mentioned as follows.
A clinical test for evaluating the efficacy and the safety of the present compound was conducted using the patients where the CKD stage was 3 or 4 as the object. Persons who meet the following selection criteria were selected from the patients who were diagnosed as CKD and receiving a conservation therapy. • Sex is withdrawn from the consideration. Pregnant women and mothers suckling a baby are however excluded. • Age is from 20 to 75 years old. • GFR value is 15 to 59. • Patients where the serum creatinine (sCr) value is within a range of 1.5 to 5.0 mg/dL at the start of the test, the measuring frequencies from 52 weeks before the test until the start of the test are thrice or more and the difference in the tested values in the initial and the final stages is 0.2 mg/dL or more (showing a rise). • Patients where a therapy with a pharmaceutical agent which is thought to suppress the progress of CKD (such as a spherical adsorptive carbon preparation) or a diet therapy is newly started during three month before the start of the test are excluded. • Moreover, patients having a symptom of cerebrovascular disturbance, patients with infectious disease and patients with peptic ulcer are excluded.
After that, the objects were divided into the rapidly-progressive CKD patients and slowly-progressive CKD patients.
As a result, in the new clinical tests, the groups to which the tablets containing the present compound as an active ingredient (test drug) are administered and to which the tablets containing no active ingredient though being undistinguishable from the test drug are divided into six groups in total. Thus, they are three groups for slowly-progressive CKD patients comprising a placebo-administered group, a 800 mg test drug-administered group and a 1600 mg test drug-administered group and other three groups for a rapidly-progressive CKD patients comprising a placebo-administered, a 800 mg test drug-administered group and a 1600 mg test drug-administered group whereby there are six groups in total. The weight mentioned hereinabove is a weight of the present compound contained in the test drug and is a dose for one day. […]

[3] = test system: rats with chronic renal failure; conditions: adenine-induced chronic renal failure; cited from earlier work

CN1C(=O)NC(=O)C1O (stereo not shown) [the present compound, 5-hydroxy-1-methylhydantoin]
inclination of the regression line of 1/sCr versus time ([1]; 200 mg/day group (n=11), after the administration (24 weeks), mean±S.D., p=0.01, Non-Patent Document 2): −0.00046±0.00043 | inclination of the regression line of 1/sCr versus time ([1]; 200 mg/day group (n=11), before the administration, mean±S.D., Non-Patent Document 2): −0.00075±0.00066 | inclination of the regression line of 1/sCr versus time ([1]; 200 mg/day group (n=12), after the administration, p=0.016, Non-Patent Document 1): −0.0004±0.00047 | inclination of the regression line of 1/sCr versus time ([1]; 200 mg/day group (n=12), before the administration, Non-Patent Document 1): −0.00078±0.00064 | inclination of the regression line of 1/sCr versus time ([1]; 400 mg/day group (n=11), after the administration (24 weeks), mean±S.D., p=0.02, Non-Patent Document 2): −0.00066±0.00097 | inclination of the regression line of 1/sCr versus time ([1]; 400 mg/day group (n=11), after the administration, p=0.024, Non-Patent Document 1): −0.00068±0.00096 | inclination of the regression line of 1/sCr versus time ([1]; 400 mg/day group (n=11), before the administration, Non-Patent Document 1): −0.00098±0.00077 | inclination of the regression line of 1/sCr versus time ([1]; 400 mg/day group (n=11), before the administration, mean±S.D., Non-Patent Document 2): −0.00098±0.00077 | side effect in the clinical test and in the clinical symptom ([1]; 200 or 400 mg/day orally for 24 weeks): No critical side effect | accumulation of the pharmaceutical agent ([1]; during the course of the clinical test, 200 or 400 mg/day for 24 weeks): no accumulation | progress of worsening of the renal function (inclination of regression line to 1/sCr, before vs after) ([2]; 800 mg/day, rapidly-progressive CKD patients (five test subjects), Dunnett test): significantly suppressed or improved; also recorded: a downward-sloping inclination becomes somewhat upward rather than moderate | progress of worsening of the renal function (inclination of regression line to 1/sCr, before vs after) ([2]; 800 mg/day, slowly-progressive CKD patients): No such an effect was achieved | progress of worsening of the renal function (inclination of regression line to 1/sCr, before vs after) ([2]; 1600 mg/day, rapidly-progressive CKD patients): a certain effect was noted in a rapidly-progressive CKD patient but the effect was not so significant | progress of worsening of the renal function (inclination of regression line to 1/sCr, before vs after) ([2]; 1600 mg/day, slowly-progressive CKD patients): No effect was noted | side effect / safety ([2]; all cases including the 1600 mg/day-administered group, 24 weeks oral): almost no side effect is noted; also recorded: no critical side effect becoming a problem is observed | action on uremic toxin such as urea nitrogen and creatinine [3]: action of lowering the uremic toxin
